Where two headings read alike, the source gives them in different places.
Assays:
[1] = test system: SMT-F (spontaneous mammary carcinoma); assay: Magnetic resonance imaging of tumor bearing mouse, signal intensity; format: in vivo, DBA/2HaRos-d^+Ha mice; conditions: for tumor appearance in MR image / kidney signal in MR image / Normalized Signal Intensity, confidence interval / Normalized Signal Intensity, range / Normalized Signal Intensity, mean ± SD: 100 mg/kg; for kidney signal in MR image: region of the pelvis; for Normalized Signal Intensity, confidence interval: 99% (t test); for Normalized Signal Intensity, range: control 0.652-0.701; for Normalized Signal Intensity, mean ± SD: control 0.685 ± .015
Method: Control (upper left), 1 hour post injection (100 mg/kg) of Mn(III)TPPS3 (upper right), and 24 hours post injection (lower left). […] Image intensity working standards (top to bottom) 28 mM CuSO4 in 1N HCl, 5 mM GdDTPA in isotonic saline and baby oil.
Magnetic resonance images were made using a custom-built small animal (mouse) transmitter/receiving coil similar to the design of Henkelman et al., Small Animal Imaging With A Clinical Imager. Magn. Reson. Med. 4:61-66; 1987, and tuned to 15 MHz for use with a Diasonics™ 0.35 Tesla clinical scanner. Images were made using a TR of 500 msec. and a TE of 50 msec. with a slice thickness of 2.5 mm.
Images were analyzed using a Hewlett Packard Vectra™ ES/12 personal computer with high resolution VGA graphics after digitization via a Dage 70™ camera with Vidicon tube utilizing a Matrox™ MVP AT image capture/display board. Signal intensity measurements were made from selected areas of interest (AOI) using Image-Pro II™ software (Media Cybernetics, Silver Spring, MD). Any suitable similar apparatus and software can of course be used. Generally an entire section (image slice) of tumor was circumscribed using a free-form area of interest option. The area of interest was then represented by a histogram relating pixel frequency to gray level. Each gray level (0-255) was multiplied by its associated frequency. The resulting products were summed and divided by the area of interest in units of centimeter squared. The procedure was repeated three times to determine a mean value for the tumor at each time period. The same procedure was carried out for the midrange working standard (5 mM Gd DTPA).
The visual differences (intensity) noted between control and treated (FIG. 2) were quantitated using mean intensity values normalized to corresponding working standards. The results (table 4) indicate that differences between control and enhanced and between one and 24 hrs are significant. Signal intensity measured at 24 hrs is 21% higher than control and 7% higher than the value determined at 1 hr. Note that this analysis ignores the fact that the increase in intensity at 24 hrs is actually concentrated into a relatively small area of the tumor by averaging over the entire section.

[2] = mouse, in vivo; for Ratios of the concentration of porphyrins in liver to kidney / Ratios of the concentration of porphyrins in tumor to muscle: iv
Method: Measured concentrations are averages for two mice.
Biodistribution (liver, kidney, muscle and tumor) of the four manganese porphyrins was measured by absorption spectroscopy of ammonia/methanol mixtures and expressed as μg metalloporphyrin per gram of tissue (wet weight). Quantitation was based upon the extinction coefficient for each porphyrin as predetermined in the extraction solutions.
SMT-F (spontaneous mammary carcinoma) was maintained in the laboratory on a biweekly schedule in which 1 mm^3 pieces of tumor were implanted in the flank of DBA/2HaRos-d^+Ha mice. Porphyrins were delivered by intravenous injection in the tail vein.
The distribution of each porphyrin in kidney, liver, muscle and tumor was determined at 1 and 24 hours post injection.

[3] = test system: SMT-F (spontaneous mammary carcinoma); assay: Relaxivity in excised tumor tissue at 10.7 MHz; format: in vivo, DBA/2HaRos-d^+Ha mice; conditions: 24 hours post injection; for Relaxivity of tumors excised from mice (relaxation rate of treated minus untreated tissue divided by porphyrin concentration in tumor tissue): 100 mg/kg, 10.7 MHz, 37° C.
Method: Relaxation and biodistribution measurements were carried out using procedures known to those skilled in the art, e.g., Fiel et. al., supra. Briefly, the longitudinal relaxation time (T1) for excised tissue was measured at 37° C., with a Praxis II™ relaxometer (Praxis Corporation, San Antonio, Tex.) operating at 10.7 MHz and employing a saturation recovery pulse sequence.
Relaxivity in tumor tissue was measured for each porphyrin on excised tissue at 10.7 MHz, 24 hours post injection of a 100 mg/kg dose (table 3).
*Expressed as the relaxation rate of tissue from treated animals (24 hrs)
minus the relaxation rate of tissue from untreated animal (control)
divided by the concentration of porphyrin in the tumor tissue.

L1210 cells = test system: L1210 cells; set-up: unit not given beside the values; conditions: mouse, 48 h
[4] = Hydrophobicity of the porphyrins; format: physicochemical; conditions: rank within the series of four

Compound | Ratios of the concentration of porphyrins in liver to kidney ([2]; 60 min) | Ratios of the concentration of porphyrins in tumor to muscle ([2]; 60 min) | Ratios of the concentration of porphyrins in liver to kidney ([2]; 1440 min) | tumor uptake, tumor/muscle ratio and relaxivity in tumor tissue, overall ranking [3] | Relaxivity of tumors excised from mice (relaxation rate of treated minus untreated tissue divided by porphyrin concentration in tumor tissue) [3] | Ratios of the concentration of porphyrins in tumor to muscle ([2]; 1440 min) | further results
O=S(=O)([O-])c1ccc(-c2c3nc(c(-c4ccc(S(=O)(=O)[O-])cc4)c4ccc([nH]4)c(-c4ccc(S(=O)(=O)[O-])cc4)c4nc(c(-c5ccccc5)c5ccc2[nH]5)C=C4)C=C3)cc1.[Mn+3] [MnTPPS3, manganese III meso-[tri(4-sulfonatophenyl)phenyl]porphine] | 0.7 | 3.2 | 1.8 | superior to all others in regard to tumor uptake, tumor/muscle ratio and relaxivity in tumor tissue | – | – | tumor appearance in MR image ([1]; 1 hour post injection): the tumor appears somewhat brighter than the control, although it remains homogeneous; kidney signal in MR image ([1]; 1 hour post injection): high intensity signal in the region of the pelvis; kidney signal in MR image ([1]; 1 hour post injection, listed as Mn(III)TPPS3, 100 mg/kg): concentration of porphyrin in kidneys at 1 hour; Normalized Signal Intensity, confidence interval ([1]; 1 hr post injection, tumor): 0.769-0.784; Normalized Signal Intensity, range ([1]; 1 hr post injection, tumor): 0.766-0.780; Normalized Signal Intensity, mean ± SD ([1]; 1 hr post injection, tumor): 0.774 ± .006; tumor appearance in MR image ([1]; 24 hours post injection): the tumor appears very heterogeneous; tumor appearance in MR image ([1]; 24 hours post injection, listed as Mn(III)TPPS3, 100 mg/kg): heterogeneous signal enhancement in tumor at 24 hours; Normalized Signal Intensity, confidence interval ([1]; 24 hrs post injection, tumor): 0.815-0.841; Normalized Signal Intensity, range ([1]; 24 hrs post injection, tumor): 0.820-0.836; Normalized Signal Intensity, mean ± SD ([1]; 24 hrs post injection, tumor): 0.828 ± .007; Signal intensity increase over the value at 1 hr ([1]; 24 hrs vs 1 hr, tumor): 7%; Signal intensity increase over control ([1]; 24 hrs vs control, tumor): 21%; concentration in kidney [2]: high concentration found in the kidney at 1 hour; kidney clearance [2]: cleared rapidly and concentrated in the urine; LD50 for L1210 cells in culture at day 2 (L1210 cells): 1010
O=S(=O)([O-])c1ccc(-c2c3nc(c(-c4ccc(S(=O)(=O)[O-])cc4)c4ccc([n-]4)c(-c4ccc(S(=O)(=O)[O-])cc4)c4ccc([n-]4)c(-c4ccc(S(=O)(=O)[O-])cc4)c4nc2C=C4)C=C3)cc1.[Mn+3] [MnTPPS4, manganese III meso-tetra(4-sulfonatophenyl)porphine, reference compound] | 0.3 | – | 0.3 | – | 0.207 ± .004 | – | hydrophobicity [4]: the least hydrophobic porphyrin
manganese III meso-[cis-di(4-sulfonatophenyl)diphenyl]porphine [MnTPPS2(cis)] | 6.4 | 2.8 | 5.5 | superior to MnTPPS4 | – | 9.7 | Relaxivity of tumors excised from mice (relaxation rate of treated minus untreated tissue divided by porphyrin concentration in tumor tissue) ([3]; measurement from one mouse): 0.361
manganese III meso-[trans-di(4-sulfonato-phenyl)diphenyl]porphine [MnTPPS2(trans)] | 4.4 | 2.3 | 3.8 | superior to MnTPPS4 | 0.296 ± .045 | 11.6 | –
